Laboratory results as given in a melting point compilation (Tetko et al.; mined from patent text by program, amines drawn as free bases though some values may be those of a salt).

First: CCOC(=O)c1cc2n(C)c3ccc(Cl)cc3c(=O)n2n1
Second: Cn1nc(Sc2ccc(C(=O)OCC(C)(C)C)c(Cl)c2)n(C)c1=O
The melting point of the first is higher: 272 to 274 °C for the first, 101 °C for the second.

First: CC1(C)COC(c2ccc(S)cc2)OC1
Second: CC(=Cc1ccccc1)c1ccc2c(c1)SCC(C)(C)CS2
The melting point of the first is higher: 134 to 136 °C for the first, 45 to 48 °C for the second.

First: O=C1c2cc(Cl)ccc2-n2cccc21
Second: Cc1[nH]c(=S)n(Nc2ccc(Cl)cc2)c1-c1ccccc1
The melting point of the first is lower: 92 °C for the first, 212 to 214 °C for the second.

`COc1cc(C(=O)NS(=O)(=O)c2ccccc2C)ccc1Cc1c(Cl)n(C)c2cc(Cl)c(CC(C)NC(=O)N(C)C)cc12` (centres undefined) and `CCCc1cc(Cl)c2oc(C(=O)c3ccccc3)c(C)c2c1OC(=O)c1ccccc1` cannot be ordered by melting point: 136 to 146 °C for the first, 141 to 142 °C for the second.

First: O=C(O)CCC(=O)CC(=O)c1cccnc1
Second: COC(=O)CC(=O)c1cnccn1
The melting point of the first is higher: 156 to 158 °C for the first, 109 to 110 °C for the second.

First: Cc1nc2cc3c(cc2c(=O)[nH]1)OCCO3
Second: CC1(C)COC(=O)N1c1nc(-c2sc(C#N)cc2Br)cs1
The melting point of the first is higher: 275 °C for the first, 230 to 234 °C for the second.

Compared with `COC(=O)c1cc2ccccc2n1C1=CC(C)(C)Oc2ccc(C#N)cc21`, `COC(=O)c1ccc(C(=O)NCc2cccc3ccccc23)s1` is lower in melting point: 197 to 200 °C for the first, 125 °C for the second.

Compared with `COC1=C(OC)C(=O)C(CCCCCCCCCC(=O)N[C@H](Cc2ccccc2)C(=O)O)=C(C)C1=O`, `CCCCCCCCCCOc1ccc(O)c(C(=O)OC)c1` is lower in melting point: 96 to 98 °C for the first, 40 to 43 °C for the second.

`C=Cc1ccc(CP(=O)(C(=O)c2c(C)cc(C)cc2C)C(=O)c2c(C)cc(C)cc2C)cc1` and `Cc1cc(Cn2nnc(C(N)=O)c2N)cc(C)c1C(=O)c1ccc(Cl)cc1` cannot be ordered by melting point: 208 °C for the first, 208 to 209 °C for the second.

First: COc1ccc(CCc2ccc(C(=O)O)cc2)cc1OC(C)CCCc1ccccc1 (centres undefined)
Second: CCOC(=O)c1ccc(-c2ccc(OC)c(-c3cccc([N+](=O)[O-])c3)c2)cc1
The melting point of the first is higher: 112 °C for the first, 106 to 108 °C for the second.

Compared with `CCOC(=O)C(Br)=CC1C(C(=O)OC(C#N)c2cccc(Oc3ccccc3)c2)C1(C)C` (centres undefined), `N#CCc1c[nH]c2ccc(CS(=O)(=O)Oc3ccccc3)cc12` is higher in melting point: 69 °C for the first, 134 to 135 °C for the second.

First: O=C(O)/C=C/C=C(c1cccc(C(F)(F)F)c1)c1cccc(C(F)(F)F)c1
Second: Cc1c(Cc2cccc(C(F)(F)F)c2)sc2c(-c3cccc(C(=O)NCCOC(C)C)c3)cccc12
The melting point of the first is lower: 110 to 112 °C for the first, 121 to 122 °C for the second.

First: C=C1C(=O)c2ccccc2OC1c1ccc(N(C)C)cc1 (centres undefined)
Second: OC1CCc2c(-c3ccccc3)cccc21 (centres undefined)
The melting point of the first is higher: 110 to 112 °C for the first, 80.5 to 81.5 °C for the second.

First: Nc1ncnc2c1ncn2Cc1oc2ccc(Br)cc2c(=O)c1-c1ccccc1F
Second: O=C1c2ccccc2C(=O)N1CCc1nnc2n1-c1ccc(Cl)cc1C(c1ccccc1)=NC2
The melting point of the first is higher: 231 to 233 °C for the first, 133 to 134 °C for the second.

First: CCCCCCCCC1(CCCCCCCC)c2cc(O)ccc2-c2ccc(Br)cc21
Second: CCCCCCCCCCCCC(C)CNc1cc(C)c([N+](=O)[O-])cc1C(N)=O (centres undefined)
The melting point of the first is lower: 110 °C for the first, 117 to 119 °C for the second.

First: CC(C)NC(=O)COC1c2ccccc2C(=O)N1c1ccc2ccc(Cl)nc2n1 (centres undefined)
Second: COc1ccc(C(=O)Nc2ccc3ccc(OC)nc3n2)cc1
The melting point of the first is higher: 188 °C for the first, 115 °C for the second.

First: O=c1ccc(-c2ccc(OCCCCl)cc2)n[nH]1
Second: c1ccc(OCCSCc2nnc(-c3ccc(OCCCCN4CCCCC4)cc3)o2)cc1
The melting point of the first is higher: 191 to 193 °C for the first, 57 to 62 °C for the second.

First: CCCCCCCC(=O)C(CC(=O)OCC)C(=O)OCC (centres undefined)
Second: CCCCCCCCC(OC(C)=O)C1=CC(=O)OC1O (centres undefined)
The melting point of the first is higher: 138 to 142 °C for the first, 54 to 55 °C for the second.

Compared with `C#CCOc1ccc(C(=O)O)c(C2=NC(=O)C(C)(C(C)C)N2)n1` (centres undefined), `CC(C)c1nn(-c2ccccn2)cc1CCCOc1ccccc1CC(=O)O` is lower in melting point: 195 to 198 °C for the first, 140 to 142 °C for the second.

Compared with `COc1ccc2c(CBr)c(Br)ccc2c1C(F)(F)F`, `COc1ccc2c(C)cc(=O)oc2c1C` is higher in melting point: 142 to 143 °C for the first, 162 to 164 °C for the second.

First: O=C1CC(C(F)(F)F)CC(=O)N1c1cc(OS(=O)(=O)c2ccccc2)c(Cl)cc1F
Second: CS(=O)(=O)Nc1cc(N2C(=O)C3=C(CCCC3)C2=O)c(F)cc1C#N
The melting point of the first is higher: 214 to 215 °C for the first, 113 °C for the second.

First: CCCCCCCCc1ccc(OCC(=O)Cn2ccc3ccccc32)cc1
Second: O=C(O)c1cc2ccc(OCc3ccccc3)cc2oc1=O
The melting point of the first is lower: 65 °C for the first, 196 to 197 °C for the second.

First: CNc1ccc(Cl)c(C(=O)Nc2cccc3c4c(oc23)CCCC4)c1Cl
Second: CN1CC[C@@H](c2c(O)cc(O)c3c(=O)cc(-c4ccc(N)cc4)oc23)[C@@H]1CO
The melting point of the first is lower: 160 to 162 °C for the first, 172 to 174 °C for the second.

First: CC[C@H](C)CNC(=O)[C@@H](C[C@H](O)[C@H](CC1CCCCC1)NC(=O)OC(C)(C)C)C(C)(C)O
Second: CCOC(C)O[C@@H](C(=O)OC(=O)[C@H](OC(C)OCC)[C@@H](NC(=O)OC(C)(C)C)c1ccccc1)[C@@H](NC(=O)OC(C)(C)C)c1ccccc1 (some centres undefined)
The melting point of the first is higher: 64 to 67 °C for the first, 43 °C for the second.

First: CN(C)CN(C(=O)c1ccc(Cl)cc1Cl)c1ccc(C(=O)N2Cc3cccn3Cc3ccccc32)cc1
Second: O=C(Oc1ccc2c(c1)OC=C(C(=O)N1CCN(C(c3ccc(F)cc3)c3ccc(F)cc3)CC1)O2)c1cccnc1
The melting point of the first is lower: 126 to 129 °C for the first, 142 °C for the second.

Compared with `OCc1cccc2c1ccn2-c1ccnc(N[C@H]2CC[C@H](O)CC2)n1`, `c1ccc(COc2ccc([C@H]3CC[C@@H](NCCOc4ccccc4)CC3)cc2)cc1` is lower in melting point: 212 to 213 °C for the first, 95 to 98 °C for the second.

First: Cc1ccc(-c2noc(C(F)F)c2-c2ccc(S(N)(=O)=O)cc2)cc1
Second: CC1(C)OC(c2ccc(S(N)(=O)=O)c(F)c2)=C(c2cc(F)cc(F)c2)C1=S
The melting point of the first is higher: 169 to 172 °C for the first, 153 to 154 °C for the second.

First: N=C(Nc1ccc2c(c1)CNCCO2)c1ccsc1
Second: CCOC(=O)c1cnc2cn[nH]c2c1Nc1ccsc1
The melting point of the first is lower: 150 to 152 °C for the first, 174 to 175 °C for the second.

Compared with `Cc1noc(-c2cccc(I)c2)n1`, `Cn1nnnc1-c1ccc2[nH]ccc2c1` is higher in melting point: 102 to 103 °C for the first, 149 to 150 °C for the second.

Compared with `CC(=O)OCc1cc(=O)n2c(ccn2-c2ccccc2)n1`, `Cc1cccc2nc(C)n(-c3ccccc3)c12` is lower in melting point: 172 to 175 °C for the first, 107 to 109 °C for the second.

First: CC(C)(C)CCP1C(O)C(O)P(CCC(C)(C)C)C(O)C1O (centres undefined)
Second: Cc1c(C(=O)Nc2ccc(OCC(C)(C)C)c(C#N)c2)cnn1C(C)(C)C
The melting point of the first is higher: 186 to 210 °C for the first, 143 to 144 °C for the second.

First: CCCCCCCCCCCCn1sncc1=O
Second: CCCCn1c(=O)c2c(cnn2S(=O)(=O)CC)n(CCCC)c1=O
The melting point of the first is lower: 68 to 70 °C for the first, 119 to 121 °C for the second.

First: Cc1ccc(-c2ccc3c(c2)C=C(C(=O)Nc2ccc(CN(C)C4CCOCC4)cc2)CCN3C=O)cc1
Second: O=C(NO)C1(NS(=O)(=O)c2ccc(Oc3ccc(F)cc3)cc2)CCOCC1
The melting point of the first is higher: 229 to 230 °C for the first, 176 to 177 °C for the second.

First: COc1cccc([C@H]2O[C@H](CC(=O)Nc3ccc4oc(C(=O)O)c(OC(C)C)c4c3)C(=O)N(CC(C)(C)CO)c3ccc(Cl)cc32)c1OC
Second: CCOC(=O)c1cc(=O)c2c(OCC(O)COc3cccc(O)c3C(C)=O)cccc2o1 (centres undefined)
The melting point of the first is higher: 174 to 175 °C for the first, 145 to 148 °C for the second.

First: Brc1ccc(-c2cnc(-c3ccccc3)nc2)cc1
Second: O=C1c2ccccc2C(=O)N1CC(Br)(c1ccccc1)C(F)Br (centres undefined)
The melting point of the first is higher: 194 °C for the first, 163 to 164 °C for the second.

Going from `CC(Oc1ccc2c(c1)OCC(Cc1ccccn1)C2O)c1ccc2ccccc2n1` (centres undefined) to `CC1C(=O)N(c2ccc(Oc3ccccc3)cc2)C(=S)N1c1ccccc1` (centres undefined), the melting point rises from 73 °C to 132 °C.

First: CN(C(=O)Cc1ccccc1)c1ccc(OC23CC4CC(CC(C4)C2)C3)cc1
Second: CC(C)Sc1c(C(N)=O)n(C)c2ccc(OCc3ccccc3)cc12
The melting point of the first is lower: 89 to 91 °C for the first, 151 to 154 °C for the second.

First: CCN1CCc2nc(N3CCN(Cc4ccccc4)CC3)ncc2C1=O
Second: O=c1[nH]cc(Cc2ccccc2)c2ccccc12
The melting point of the first is lower: 128 to 130 °C for the first, 217 to 220 °C for the second.

First: CN=C(O)c1c(Sc2ccc(OC)cc2)c(Sc2ccc(OC)cc2)c(Sc2ccc(OC)cc2)c(Sc2ccc(OC)cc2)c1C(=O)O
Second: CC(=O)c1ccc2c(c1)C1(c3cc(C(C)=O)ccc3-2)c2cc(C(C)=O)ccc2-c2ccc(C(C)=O)cc21
The melting point of the first is lower: 168 to 170 °C for the first, greater than 300 °C for the second.

Compared with `CC(COc1ccc(-n2nc3c(cc2=O)CCc2ccc(F)cc2-3)cc1)N(C)C` (centres undefined), `COc1ccc(CSc2nnc(-c3ccnc(NC(=O)OC(C)(C)C)c3)o2)cc1F` is higher in melting point: 178 to 180 °C for the first, 244 to 245 °C for the second.

First: CC(=O)Nc1cc2c(cc1C#N)CCC2
Second: COc1ncc(C(=O)O)cc1OC1CCCC1
The melting point of the first is lower: 172 °C for the first, 191 to 192 °C for the second.

First: c1cc(-c2nc(-c3cnccn3)n[nH]2)ccn1
Second: COC(=O)c1ccc2c(OC)ccnc2c1
The melting point of the first is higher: 251 to 252 °C for the first, 147 to 148 °C for the second.

First: COC(=O)CC(Oc1c(Br)cc(-c2c3ccccc3c(Br)c3sc4ccccc4c23)cc1Br)C(=O)OC (centres undefined)
Second: CCOC(=O)C(=O)Nc1cc(Br)c2ccccc2c1NC(=O)C(=O)OCC
The melting point of the first is lower: 118 to 121 °C for the first, 164 °C for the second.

Compared with `CCOC(=O)Nc1cccc(C(=O)CBr)c1`, `O=C(Nc1ccccc1O)C(=O)Nc1ccccc1O` is higher in melting point: 108 to 110 °C for the first, greater than 250 °C for the second.

First: CCOC(=O)c1nc(Cl)nc(N)c1OC
Second: CCOC(=O)C1(C)C=C(Cl)C2=NCN(C)C2=N1 (centres undefined)
The melting point of the first is higher: 118 to 119 °C for the first, 56 to 58 °C for the second.

Compared with `COc1cccc(NC(=O)NC2CN(C3CCCCC3)c3ccccc3N(CC(=O)C(C)(C)C)C2=O)c1` (centres undefined), `CC(C)(C#N)Cc1ccc(-c2ccc(CC(C)(C)C#N)c(Cl)c2)cc1Cl` is lower in melting point: 234 to 235 °C for the first, 148 to 156 °C for the second.

First: Nc1nc2c(Cc3ccsc3)c(I)[nH]c2c(=O)[nH]1
Second: Nc1nnc(-c2ccccc2Cl)c(-c2ccccc2Cl)n1
The melting point of the first is higher: greater than 260 °C for the first, 240 to 242 °C for the second.

First: COC(=O)c1cc(I)cnc1Cl
Second: C#CCOc1ccc(CCNC(=O)C(=NOC)c2ccc(Cl)c(Cl)c2)cc1OC
The melting point of the first is lower: 49 to 50 °C for the first, 107 to 108 °C for the second.

First: CSc1sc(C(=O)N2CCCC2)c2c1-c1oncc1C(C)(C)C2
Second: CCCOc1c(OC)cc([N+](=O)[O-])c2ncccc12
The melting point of the first is higher: 114 to 116 °C for the first, 100 to 104 °C for the second.

Compound `Cn1nnnc1CC(O)(Cn1cncn1)c1ccc(Cl)cc1Cl` (centres undefined) has a melting point of 182 to 184 °C.
